# In patent US6664398B2, “Derivatives of erythromycin, their preparation process and their use as medicaments” (Aventis Pharma S.A., priority 1999, dated 2003):
# Columns and labels:
# Type in all cases: cell-based
# [1] = tested on: S. agalactiae 02B1HT1; experiment: Method of dilutions in liquid medium (M.I.C.); conditions: reading after 24 hours, 37° C.
# Method: (§1) Method of dilutions in liquid medium A series of tubes is prepared in which the same quantity of nutritive sterile medium is distributed. Increasing quantities of the product to be studied are distributed into each tube, then each tube is sown with a bacterial strain. After incubation for twenty-four hours in a heating chamber at 37° C., the growth inhibition is evaluated by transillumination, which allows the minimal inhibitory concentrations (M.I.C.) to be determined, expressed in micrograms/cm^3. The following results were obtained with the product of Example 1: (reading after 24 hours)
# [2] = tested on: S. agalactiae 02B1SJ1c; experiment: Method of dilutions in liquid medium (M.I.C.); conditions: reading after 24 hours, 37° C.
# Method: as §1
# [3] = tested on: S. aureus 011GO25i; experiment: Method of dilutions in liquid medium (M.I.C.); conditions: reading after 24 hours, 37° C.
# Method: as §1
# [4] = tested on: S. aureus 011UC4; experiment: Method of dilutions in liquid medium (M.I.C.); conditions: reading after 24 hours, 37° C.
# Method: as §1
# [5] = tested on: S. epidermidis 012GO11i; experiment: Method of dilutions in liquid medium (M.I.C.); conditions: reading after 24 hours, 37° C.
# Method: as §1
# [6] = tested on: S. faecalis 02D2DU15c; experiment: Method of dilutions in liquid medium (M.I.C.); conditions: reading after 24 hours, 37° C.
# Method: as §1
# [7] = tested on: S. faecalis 02D2UC1; experiment: Method of dilutions in liquid medium (M.I.C.); conditions: reading after 24 hours, 37° C.
# Method: as §1
# [8] = tested on: S. faecium 02D3HT1; experiment: Method of dilutions in liquid medium (M.I.C.); conditions: reading after 24 hours, 37° C.
# Method: as §1
# [9] = tested on: S. mitis 02MitCB1; experiment: Method of dilutions in liquid medium (M.I.C.); conditions: reading after 24 hours, 37° C.
# Method: as §1
# [10] = tested on: S. mitis 02MitGR16i; experiment: Method of dilutions in liquid medium (M.I.C.); conditions: reading after 24 hours, 37° C.
# Method: as §1
# [11] = tested on: S. pneumoniae 030CR18c; experiment: Method of dilutions in liquid medium (M.I.C.); conditions: reading after 24 hours, 37° C.
# Method: as §1
# [12] = tested on: S. pneumoniae 030GR20; experiment: Method of dilutions in liquid medium (M.I.C.); conditions: reading after 24 hours, 37° C.
# Method: as §1
# [13] = tested on: S. pneumoniae 030PW23c; experiment: Method of dilutions in liquid medium (M.I.C.); conditions: reading after 24 hours, 37° C.
# Method: as §1
# [14] = tested on: S. pneumoniae 030RO1i; experiment: Method of dilutions in liquid medium (M.I.C.); conditions: reading after 24 hours, 37° C.
# Method: as §1
# [15] = tested on: S. pneumoniae 030SJ1c; experiment: Method of dilutions in liquid medium (M.I.C.); conditions: reading after 24 hours, 37° C.
# Method: as §1
# [16] = tested on: S. pneumoniae 030SJ5i; experiment: Method of dilutions in liquid medium (M.I.C.); conditions: reading after 24 hours, 37° C.
# Method: as §1
# [17] = tested on: S. pneumoniae 032UC1; experiment: Method of dilutions in liquid medium (M.I.C.); conditions: reading after 24 hours, 37° C.
# Method: as §1
# [18] = tested on: S. pyogenes 02A1UC1; experiment: Method of dilutions in liquid medium (M.I.C.); conditions: reading after 24 hours, 37° C.
# Method: as §1
# [19] = tested on: S. sanguis 02SGr10i; experiment: Method of dilutions in liquid medium (M.I.C.); conditions: reading after 24 hours, 37° C.
# Method: as §1
# [20] = tested on: Streptococcus gr.G 02GOGR5; experiment: Method of dilutions in liquid medium (M.I.C.); conditions: reading after 24 hours, 37° C.
# Method: as §1
# [21] = tested on: Haemophilus Influenzae 351HT3, 351CB12, 351CA1 and 351GR6; experiment: Activity on gram-negative bacterial strains
# Method: as §1
structure (smiles),measurement,setting,value
"CC[C@H]1OC(=O)[C@H](C)C(=O)[C@H](C)[C@@H](O[C@@H]2O[C@H](C)C[C@H](N(C)C)[C@H]2O)[C@](C)(OC)C[C@@H](C)C(=O)[C@H](C)[C@H]2N(CCCCn3ccc(-c4cccnc4)n3)C(=O)O[C@]12C [Example 1, 11,12-dideoxy-3-de[(2,6-dideoxy-3-C-methyl-3-O-methyl-α-L-ribohexopyranosyl)oxy]-6-O-methyl-3-oxo-12,11-[oxycarbonyl[[4-[3-(3-pyridinyl)-1H-pyrazol-1-yl]butyl]imino]]-erythromycin]",minimal inhibitory concentrations (M.I.C.),[1],0.02 micrograms/cm^3
same,minimal inhibitory concentrations (M.I.C.),[2],0.050 micrograms/cm^3
same,minimal inhibitory concentrations (M.I.C.),[3],0.600 micrograms/cm^3
same,minimal inhibitory concentrations (M.I.C.),[4]; S. aureus 011UC4+ 50% serum,0.600 micrograms/cm^3
same,minimal inhibitory concentrations (M.I.C.),[4]; S. aureus 011UC4,0.040 micrograms/cm^3
same,minimal inhibitory concentrations (M.I.C.),[5],0.040 micrograms/cm^3
same,minimal inhibitory concentrations (M.I.C.),[6],5.000 micrograms/cm^3
same,minimal inhibitory concentrations (M.I.C.),[7],0.02 micrograms/cm^3
same,minimal inhibitory concentrations (M.I.C.),[8],0.02 micrograms/cm^3
same,minimal inhibitory concentrations (M.I.C.),[9],0.02 micrograms/cm^3
same,minimal inhibitory concentrations (M.I.C.),[10],0.02 micrograms/cm^3
same,minimal inhibitory concentrations (M.I.C.),[11],0.300 micrograms/cm^3
same,minimal inhibitory concentrations (M.I.C.),[12],0.02 micrograms/cm^3
same,minimal inhibitory concentrations (M.I.C.),[13],0.02 micrograms/cm^3
same,minimal inhibitory concentrations (M.I.C.),[14],0.150 micrograms/cm^3
same,minimal inhibitory concentrations (M.I.C.),[15],0.150 micrograms/cm^3
same,minimal inhibitory concentrations (M.I.C.),[16],0.040 micrograms/cm^3
same,minimal inhibitory concentrations (M.I.C.),[17],0.02 micrograms/cm^3
same,minimal inhibitory concentrations (M.I.C.),[18],0.02 micrograms/cm^3
same,minimal inhibitory concentrations (M.I.C.),[19],0.02 micrograms/cm^3
same,minimal inhibitory concentrations (M.I.C.),[20],0.02 micrograms/cm^3
same,activity on gram-negative bacterial strains,[21],useful activity
